According to PubChem BioAssay (NCI):
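Cultured in 96-well plates, cells were exposed to test compound for 48 hours across five concentrations. GI50: concentration for 50% inhibition of growth. TGI: total growth inhibition.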 Activity calls are given as the source filed them. Cut-off read from the data, not from the text of the source: active = GI50 below about 0.43 µM; inactive = the rest.

Key:
Assay in all cases: inhibition of tumour cell growth, NCI panel, 48 h
HOP-62 NSCLC = system: HOP-62 NSCLC
NCI/ADR-RES ovarian = system: NCI/ADR-RES ovarian
HCT-116 colon = system: HCT-116 colon
HT29 colon = system: HT29 colon
CAKI-1 renal = system: CAKI-1 renal
UO-31 renal = system: UO-31 renal
SK-OV-3 ovarian = system: SK-OV-3 ovarian
SK-MEL-28 melanoma = system: SK-MEL-28 melanoma
COLO 205 colon = system: COLO 205 colon
IGROV1 ovarian = system: IGROV1 ovarian
786-0 renal = system: 786-0 renal
SNB-19 CNS = system: SNB-19 CNS
HCC-2998 colon = system: HCC-2998 colon
OVCAR-5 ovarian = system: OVCAR-5 ovarian
HL-60(TB) leukemia = system: HL-60(TB) leukemia
SR leukemia = system: SR leukemia
RPMI-8226 leukemia = system: RPMI-8226 leukemia
MOLT-4 leukemia = system: MOLT-4 leukemia
NCI-H522 lung = system: NCI-H522 lung
DU-145 prostate = system: DU-145 prostate
KM12 colon = system: KM12 colon
RXF 393 renal = system: RXF 393 renal
SK-MEL-5 melanoma = system: SK-MEL-5 melanoma
U251 CNS = system: U251 CNS
SW-620 colon = system: SW-620 colon
K-562 leukemia = system: K-562 leukemia
HCT-15 colon = system: HCT-15 colon
LOX IMVI melanoma = system: LOX IMVI melanoma
BT-549 breast = system: BT-549 breast
HOP-92 NSCLC = system: HOP-92 NSCLC
SF-268 CNS = system: SF-268 CNS
OVCAR-4 ovarian = system: OVCAR-4 ovarian
T-47D breast = system: T-47D breast
NCI-H460 lung = system: NCI-H460 lung
EKVX NSCLC = system: EKVX NSCLC
TK-10 renal = system: TK-10 renal
SN12C renal = system: SN12C renal
SF-539 CNS = system: SF-539 CNS
PC-3 prostate = system: PC-3 prostate
MDA-MB-435 = system: MDA-MB-435
NCI-H226 lung = system: NCI-H226 lung
CCRF-CEM leukemia = system: CCRF-CEM leukemia
MDA-MB-231 breast = system: MDA-MB-231 breast
SNB-75 CNS = system: SNB-75 CNS
OVCAR-3 ovarian = system: OVCAR-3 ovarian
ACHN renal = system: ACHN renal
A549 NSCLC = system: A549 NSCLC
SK-MEL-2 melanoma = system: SK-MEL-2 melanoma
NCI-H23 lung = system: NCI-H23 lung
M14 melanoma = system: M14 melanoma
UACC-62 melanoma = system: UACC-62 melanoma
OVCAR-8 ovarian = system: OVCAR-8 ovarian
SF-295 CNS = system: SF-295 CNS
UACC-257 melanoma = system: UACC-257 melanoma
A498 renal = system: A498 renal
MCF7 breast = system: MCF7 breast
MALME-3M melanoma = system: MALME-3M melanoma

NC(N)=N/N=C/c1c(-c2cc([N+](=O)[O-])c(Cl)cc2Cl)nc2sccn12
TGI (HOP-62 NSCLC): 3.44 µM
TGI (NCI/ADR-RES ovarian): > 100 µM
GI50 (HCT-116 colon): 0.272 µM
TGI (HCT-116 colon): 1.02 µM
GI50 (HT29 colon): 1.79 µM
TGI (HT29 colon): 3.18 µM
TGI (CAKI-1 renal): 33.7 µM
TGI (UO-31 renal): 2.6 µM
TGI (SK-OV-3 ovarian): 3.39 µM
TGI (SK-MEL-28 melanoma): 2.67 µM
GI50 (COLO 205 colon): 1.38 µM
TGI (COLO 205 colon): 2.84 µM
GI50 (IGROV1 ovarian): 0.712 µM
TGI (IGROV1 ovarian): 2.03 µM
TGI (786-0 renal): 3.11 µM
GI50 (SNB-19 CNS): 0.274 µM
TGI (SNB-19 CNS): 56.3 µM
GI50 (HCC-2998 colon): 1.36 µM
TGI (HCC-2998 colon): 2.76 µM
TGI (OVCAR-5 ovarian): 3.39 µM
TGI (HL-60(TB) leukemia): 4.31 µM

O=c1[nH]c(C2CCCCC2)nc2c(Cl)cccc12
outcome (SR leukemia): inactive
outcome (RPMI-8226 leukemia): inactive
outcome (MOLT-4 leukemia): inactive

S=c1ssc(Oc2ccccc2)c1Cl
GI50 (NCI-H522 lung): 23.2 µM
TGI (NCI-H522 lung): 42.5 µM
GI50 (DU-145 prostate): 14.5 µM
TGI (DU-145 prostate): 28.9 µM
GI50 (HOP-62 NSCLC): 37 µM
TGI (HOP-62 NSCLC): > 100 µM
GI50 (KM12 colon): 13.2 µM
TGI (KM12 colon): 26 µM
GI50 (RXF 393 renal): 12 µM
TGI (RXF 393 renal): 29.8 µM
GI50 (SK-MEL-5 melanoma): 17.3 µM
TGI (SK-MEL-5 melanoma): 35.1 µM
GI50 (U251 CNS): 7.06 µM
TGI (U251 CNS): 26.4 µM
GI50 (SR leukemia): 0.605 µM
TGI (SR leukemia): > 100 µM
GI50 (SW-620 colon): 1.9 µM
TGI (SW-620 colon): 5.24 µM
GI50 (K-562 leukemia): 2.68 µM
TGI (K-562 leukemia): > 100 µM
GI50 (NCI/ADR-RES ovarian): 16.4 µM
TGI (NCI/ADR-RES ovarian): 35.4 µM
GI50 (HCT-15 colon): 7.76 µM
TGI (HCT-15 colon): 22.6 µM
GI50 (LOX IMVI melanoma): 5.61 µM
TGI (LOX IMVI melanoma): 22.7 µM
GI50 (BT-549 breast): 12.7 µM
TGI (BT-549 breast): 31.7 µM
GI50 (HOP-92 NSCLC): 14.8 µM
TGI (HOP-92 NSCLC): 36.2 µM
GI50 (SF-268 CNS): 13.3 µM
TGI (SF-268 CNS): 26.1 µM
GI50 (OVCAR-4 ovarian): 34 µM
TGI (OVCAR-4 ovarian): > 100 µM
GI50 (T-47D breast): 21.5 µM
TGI (T-47D breast): 43 µM
GI50 (NCI-H460 lung): 16.9 µM
TGI (NCI-H460 lung): 33.1 µM
GI50 (EKVX NSCLC): 18.4 µM
TGI (EKVX NSCLC): 38.9 µM
GI50 (TK-10 renal): 3 µM
TGI (TK-10 renal): 9.68 µM
GI50 (HT29 colon): 1.37 µM
TGI (HT29 colon): > 100 µM
GI50 (CAKI-1 renal): 16 µM
TGI (CAKI-1 renal): 29.5 µM
GI50 (UO-31 renal): 19 µM
TGI (UO-31 renal): 58.8 µM
GI50 (SK-OV-3 ovarian): 39.4 µM
TGI (SK-OV-3 ovarian): > 100 µM
GI50 (SN12C renal): 11.7 µM
TGI (SN12C renal): 28.2 µM
GI50 (SK-MEL-28 melanoma): 11.9 µM
TGI (SK-MEL-28 melanoma): 32 µM
GI50 (COLO 205 colon): 23 µM
TGI (COLO 205 colon): 47.5 µM
GI50 (SF-539 CNS): 17.3 µM
TGI (SF-539 CNS): 33.8 µM
GI50 (PC-3 prostate): 10.2 µM
TGI (PC-3 prostate): 23.9 µM
GI50 (MDA-MB-435): 14.2 µM
TGI (MDA-MB-435): 27.2 µM
GI50 (786-0 renal): 6.63 µM
TGI (786-0 renal): 20.7 µM
GI50 (NCI-H226 lung): 27 µM
TGI (NCI-H226 lung): 73.8 µM
GI50 (CCRF-CEM leukemia): 1.02 µM
TGI (CCRF-CEM leukemia): 5.84 µM
GI50 (MDA-MB-231 breast): 14.2 µM
TGI (MDA-MB-231 breast): 29.6 µM
GI50 (SNB-19 CNS): 31.6 µM
TGI (SNB-19 CNS): 79.6 µM
GI50 (SNB-75 CNS): 18 µM
TGI (SNB-75 CNS): 45 µM
GI50 (OVCAR-3 ovarian): 7.74 µM
TGI (OVCAR-3 ovarian): 20.4 µM
GI50 (ACHN renal): 4.5 µM
TGI (ACHN renal): 16.1 µM
GI50 (RPMI-8226 leukemia): 0.95 µM
TGI (RPMI-8226 leukemia): 7.7 µM
GI50 (HCC-2998 colon): 3.7 µM
TGI (HCC-2998 colon): 14.7 µM
GI50 (A549 NSCLC): 33.9 µM
TGI (A549 NSCLC): > 100 µM
GI50 (MOLT-4 leukemia): 0.73 µM
TGI (MOLT-4 leukemia): > 100 µM
GI50 (SK-MEL-2 melanoma): 33.9 µM
TGI (SK-MEL-2 melanoma): 83.3 µM
GI50 (NCI-H23 lung): 12.6 µM
TGI (NCI-H23 lung): 50.9 µM
GI50 (OVCAR-5 ovarian): 23.2 µM
TGI (OVCAR-5 ovarian): 49.9 µM
GI50 (M14 melanoma): 18 µM
TGI (M14 melanoma): 43.2 µM
GI50 (UACC-62 melanoma): 14 µM
TGI (UACC-62 melanoma): 26.9 µM
GI50 (HL-60(TB) leukemia): 3.21 µM
TGI (HL-60(TB) leukemia): > 100 µM
GI50 (OVCAR-8 ovarian): 29.5 µM
TGI (OVCAR-8 ovarian): 62.4 µM
GI50 (SF-295 CNS): 15.1 µM
TGI (SF-295 CNS): 28.3 µM
GI50 (UACC-257 melanoma): 17.6 µM
TGI (UACC-257 melanoma): 35.5 µM

COc1cccc2c1/c(=C/c1ccc(N(C)C)cc1)c1cc(-c3ccccc3)[n+](C)n12
TGI (A498 renal): 1.3 µM
TGI (DU-145 prostate): 1.75 µM
TGI (HOP-62 NSCLC): 2.08 µM
TGI (RXF 393 renal): 1.94 µM
TGI (SK-MEL-5 melanoma): 0.312 µM
TGI (U251 CNS): 1.32 µM
TGI (SR leukemia): 0.899 µM
TGI (K-562 leukemia): 1.39 µM
TGI (NCI/ADR-RES ovarian): > 100 µM
TGI (BT-549 breast): 0.774 µM
TGI (MCF7 breast): 1.29 µM
TGI (SF-268 CNS): 1.37 µM
TGI (OVCAR-4 ovarian): 3.16 µM
TGI (HCT-116 colon): 0.765 µM
TGI (NCI-H460 lung): 0.949 µM
TGI (TK-10 renal): 1.03 µM
TGI (HT29 colon): 0.129 µM
TGI (UO-31 renal): 0.802 µM
TGI (SF-539 CNS): 14.9 µM
TGI (MDA-MB-435): 1.65 µM
TGI (786-0 renal): 1.1 µM
TGI (CCRF-CEM leukemia): 1.45 µM
TGI (MDA-MB-231 breast): 2.2 µM
TGI (SNB-19 CNS): 1.72 µM
TGI (SNB-75 CNS): 0.997 µM
TGI (OVCAR-3 ovarian): 1.5 µM
TGI (ACHN renal): 0.8 µM
TGI (RPMI-8226 leukemia): 1.27 µM
TGI (HCC-2998 colon): 1.08 µM
TGI (A549 NSCLC): 2.5 µM
TGI (MALME-3M melanoma): 0.684 µM
TGI (MOLT-4 leukemia): 0.623 µM
TGI (OVCAR-5 ovarian): 1.66 µM
TGI (M14 melanoma): 1.08 µM
TGI (UACC-257 melanoma): 0.692 µM

CCOP(=O)(C/C=C\Cn1cnc(C(N)=O)c1N)OCC
GI50 (UACC-62 melanoma): 25.7 µM
TGI (UACC-62 melanoma): 75.8 µM
